Values quoted from earlier work, collected in paper PMC8541945 (Investigational New Drugs, 2021).

Legend:
[1] = tested on: patients; parameters: method as in PMID 28580882, PMID 28968163
[2] = tested on: brain metastases secondary to HR + /HER2- metastatic BC; parameters: method as in earlier work
[3] = tested on: heavily pretreated patients, HR + /HER2- advanced BC; parameters: method as in PMID 28533223; conditions: abemaciclib alone, 132 heavily pretreated patients
[4] = following multiple doses, 600-mg dose group
[5] = tested on: patients in the ribociclib group
[6] = tested on: patients; conditions: single agent, phase 1 trials

Row | SMILES | Grade 3/4 neutropenia [1] | Confirmed objective intracranial response [2] | Intracranial clinical benefit rate (CR + PR + SD persisting for ≥ 6 months) [2] | Patients with a decrease in the sum of intracranial target lesions [2] | CBR [3] | Confirmed ORR [3] | Median OS [3] | Median PFS [3] | Cmax, geometric mean [range] [4] | Patients with dose interruptions or dose reductions due to QTcF increase ([5]; 13 patients) | Patients with increase of more than 60 ms from baseline in the QTcF interval ([5]; 32 of 335 patients in the ribociclib group) | Patients who experienced SD [6]
1 | CCN1CCN(Cc2ccc(Nc3ncc(F)c(-c4cc(F)c5nc(C)n(C(C)C)c5c4)n3)nc2)CC1 [abemaciclib] | 21.1% | 6% | 25% | 38% | 42.4% | 19.7% | 17.7 months | 6.0 months | – | – | – | –
2 | CN(C)C(=O)c1cc2cnc(Nc3ccc(N4CCNCC4)cn3)nc2n1C1CCCC1 [ribociclib] | – | – | – | – | – | – | – | – | 1940 [range, 859–5860] ng/ml | 4% | 10% | approximately 30%
3 | CC(=O)c1c(C)c2cnc(Nc3ccc(N4CCNCC4)cn3)nc2n(C2CCCC2)c1=O [palbociclib] | – | – | – | – | – | – | – | – | – | – | – | approximately 30%
